Drawing on ChEMBL document CHEMBL4739717, “Methods of treating cartilage disorders through inhibition of clk and dyrk” (2020), this text covers EC50 for 45 molecules.

Assay [1] can be described thus: Inhibition of IL1-beta induced MMP3 expression levels in human chondrocytes assessed as MMP3 levels incubated for 2hrs followed by IL1-beta stimulation and measured after overnight incubation by LANCE assay. To be noted: Chondrocyte. The class given is functional, cell-based. In general terms: In TR-FRET formats the signal depends on donor and acceptor labels being close together.

Assay [2] is described as follows: Effect on Wnt signaling pathway in human SW480 cells harbouring TCF/LEF luciferase reporter gene and SP5-Luc reporter gene incubated for 36 to 48 hrs by luminescence assay. The class given is cell-based. A general note: In a reporter assay the amount or activity of a reporter protein is the signal.
Assay [3] deals with Dual specificity tyrosine-phosphorylation-regulated kinase 1A (Homo sapiens, UniProt Q13627). Put plainly: Inhibition of recombinant DYRK1A (unknown origin) using Ser/Thr 18 peptide as substrate incubated for 1 hr in presence of ATP by FRET assay.
Assay [4] in a line: Induction of chondrogenesis in human MSC assessed as incubated for 6 days by rhodamine B and Nile red staining based imaging analysis. The class given is functional. Conditions: bmmsc.

Regarding `Cn1ncc(-c2ccc3cnc(NC(=O)c4ccc(OC(F)F)cc4)cc3c2)c1CO`, in assay [1], the EC50 – broadly, the concentration at which the effect is half-maximal – is 1370 nM. Take `O=C(Nc1cnccn1)c1n[nH]c2ccc(-c3cncc(CN4CCCCC4)c3)cc12`: the EC50 in assay [2] was found to be 289 nM; in assay [3], 1 nM. As to `O=C(Nc1cc2cc(-c3cncs3)ccc2cn1)c1ccc2c(c1)CNCC2`, in assay [1], the EC50 came out at 3000 nM. As for `CCNCc1cncc(-c2cnc3[nH]nc(-c4cc5c(-c6cc(F)cc(CNS(C)(=O)=O)c6)nccc5[nH]4)c3c2)c1`, the results for the EC50 in assay [2], in assay [3] and in assay [4] were greater than 10000 nM, 30 nM and 300 nM, respectively. Take `CN(C)C(=O)Nc1cncc(-c2ccc3[nH]nc(C(=O)Nc4cccnc4)c3c2)c1`: the results for the EC50 in assay [2] and in assay [3] were 176 nM and 1 nM, respectively. Take `CN1CCN(c2cc(C(=O)Nc3cc4cc(-c5cnn(C)c5N)ccc4cn3)ccn2)CC1`: in assay [1], the EC50 was 11.5 nM. As to `CN(C)Cc1cncc(NC(=O)c2n[nH]c3ccc(-c4cncc(CN5CCCC5)c4)cc23)c1`, the EC50 was found to be 330 nM in assay [2] and 2 nM in assay [3]. Take `COc1cncc(-c2cc3c(-c4nc5c(-c6cccc(F)c6)cncc5[nH]4)n[nH]c3cn2)c1`: the EC50 in assay [2] is 31.3 nM; in assay [3] it was 26 nM; in assay [4], 300 nM. In assay [2], `Cc1cc2[nH]nc(C(=O)Nc3ccc(CN4CCCC4)cc3)c2cc1-c1cccnc1` yielded an EC50 of 1090 nM. Take `CN1CCN(c2ccc(C(=O)Nc3cc4cc(-c5cnn6c5CN(CCF)CC6)ccc4cn3)cn2)CC1`: in assay [1], the EC50 was 3000 nM. As to `CN1Cc2ccc(C(=O)Nc3cc4cc(-c5cncn5C)ccc4cn3)cc2C1`, the EC50 in assay [1] is 3000 nM. Still for that read-out and setting: under `CN1CCCN(c2cc(C(=O)Nc3cc4cc(-c5cnn(C)c5)ccc4cn3)ccn2)CC1` stands 3000 nM. For `CN1CCC2(CC1)CN(c1cc(C(=O)Nc3cc4cc(-c5cnn(C)c5CO)ccc4cn3)ccn1)C2`, the EC50 in assay [1] stood at 3000 nM.

Turning to `O=C(Nc1ccnnc1)c1n[nH]c2ccc(-c3cccnc3)cc12`, the EC50 was 106 nM in assay [2] and 1 nM in assay [3]. `CC(C)Nc1cncc(-c2ccc3cnc(NC(=O)C4CCN(CCF)CC4)cc3c2)n1` yielded an EC50 in assay [2] of 178 nM. Take `O=C(Nc1cc2cc(-c3cncc(NCC4(F)CNC4)n3)ncc2cn1)C1CC1`: the EC50 in assay [2] was 383 nM. With `CN(C)CCOc1cncc(-c2cnc3[nH]nc(-c4nc5c(-c6cccc(F)c6)nccc5[nH]4)c3c2)c1`, the EC50 in assay [2] was 253 nM; in assay [3] it was 5 nM. `O=C(Nc1cncc(-c2ccc3[nH]nc(-c4cc5c(-c6cccnc6)nccc5[nH]4)c3c2)c1)c1ccccc1`: the values for the EC50 in assay [2] and in assay [3] were 421 nM and 19 nM, respectively. As for `O=C(Nc1ccc(N2CCC(O)CC2)nc1)c1n[nH]c2ccc(-c3cncc(CN4CCCCC4)c3)cc12`, the EC50 in assay [2] came to 49 nM; in assay [3], 1 nM. In the case of `CCNCc1cncc(-c2ccc3[nH]nc(-c4cc5cnccc5[nH]4)c3c2)c1`, the results for the EC50 in assay [2], in assay [3] and in assay [4] were 1040 nM, 3 nM and 10 nM, respectively.

In the case of `Cc1ncc(-c2ccc3cnc(NC(=O)c4ccc(OC(C)C)cc4)cc3c2)n1C`, the concentration giving a half-maximal response (EC50) in assay [1] turned out to be 10.5 nM.

With `CS(=O)(=O)NCc1cc(F)cc(-c2nccc3[nH]c(-c4n[nH]c5ncc(-c6cncc(OCc7ccccc7)c6)cc45)cc23)c1`, the EC50 was found to be 3990 nM in assay [2] and 97 nM in assay [3].

In assay [2], `CN1CCC(n2cc(C(=O)Nc3cc4cc(-c5cnn(C)c5)ccc4cn3)cn2)CC1` returned a concentration giving a half-maximal response (EC50) of 14 nM. `O=C(Nc1cccnc1)c1n[nH]c2ccc(-c3cncc(NC(=O)N4CCOCC4)c3)cc12`: the values for the EC50 in assay [2] and in assay [3] were 1250 nM and 2 nM, respectively. As to `Cc1ncc(NC(=O)c2n[nH]c3ccc(-c4cnc(C)n4C)cc23)s1`, the results for the EC50 in assay [2] and in assay [3] were 335 nM and 4 nM, respectively. The matching figures for `O=C(Nc1ccc(-c2ccccc2)nc1)c1n[nH]c2ccc(-c3cncc(CN4CCCCC4)c3)cc12`: 101 nM and 7 nM. With `O=C(Nc1cc2cc(-c3cncc(NC4CCNCC4)n3)ccc2cn1)C1CC(F)(F)C1`, in assay [2], the EC50 turned out to be 381 nM. In the case of `Nc1cncc(-c2cnc3[nH]nc(-c4cc5c(-c6ccncc6)cncc5[nH]4)c3c2)c1`, the EC50 in assay [2] is greater than 10000 nM; in assay [3], 3 nM.

With `CC(C)CC(=O)Nc1cncc(-c2ccc3[nH]nc(-c4nc5c(N6CCN(C)CC6)cccc5[nH]4)c3c2)c1`, the EC50 in assay [2] came to 268 nM; in assay [3], 5 nM.

Turning to `CN1CCN(c2ccc(NC(=O)c3n[nH]c4ccc(-c5cncc(NC(=O)C6CC6)c5)cc34)cn2)CC1`, the EC50 in assay [2] was found to be 80 nM; in assay [3], 1 nM.

As to `CNc1nc(NCc2ncccn2)c2c(-c3ccc4ncccc4c3)c[nH]c2n1`, the EC50 in assay [2] was determined as 73.3 nM; in assay [3], 7 nM. With `CC(C)CC(=O)Nc1cncc(-c2cnc3[nH]nc(-c4cc5c(-c6cc(F)cc(CNS(C)(=O)=O)c6)nccc5[nH]4)c3c2)c1`, the values for the EC50 in assay [2], in assay [3] and in assay [4] were 1510 nM, 19 nM and 300 nM, respectively.

As to `O=C(Nc1ccc2c(c1)OCCO2)c1n[nH]c2ccc(-c3cncc(CN4CCCCC4)c3)cc12`, the 50% effective concentration (EC50) in assay [2] is 125 nM; in assay [3] it was 3 nM. For `CC(C)(C)C(=O)Nc1cncc(-c2ccc3[nH]nc(-c4nc5c(-c6ccc(F)cc6)cncc5[nH]4)c3c2)c1`, the values for the EC50 in assay [2], in assay [3] and in assay [4] were 4 nM, 55 nM and 100 nM, respectively. In the case of `O=C(Nc1cnccc1NC(=O)C1CC1)c1n[nH]c2ccc(-c3cccnc3)cc12`, the EC50 was found to be 68 nM in assay [2] and 6 nM in assay [3]. Take `CS(=O)(=O)NCc1cc(F)cc(-c2nccc3[nH]c(-c4n[nH]c5ncc(-c6cncc(NC(=O)C7CCC7)c6)cc45)cc23)c1`: the figures for the EC50 in assay [2], in assay [3] and in assay [4] were 3640 nM, 16 nM and 300 nM, respectively. In the case of `CN1CCN(Cc2ccc(NC(=O)c3n[nH]c4ccc(-c5cccnc5)cc34)cn2)CC1`, the EC50 in assay [2] is 37 nM; in assay [3], 1 nM.

With `O=C(Nc1ccnnc1)c1n[nH]c2ccc(-c3cncc(CN4CCCCC4)c3)cc12`, the EC50 is 40 nM in assay [2] and 1 nM in assay [3]. As to `CN(C)Cc1cncc(-c2cnc3[nH]nc(-c4nc5c(-c6ccsc6)cccc5[nH]4)c3c2)c1`, the EC50 stood at 32 nM in assay [2], 83 nM in assay [3] and 300 nM in assay [4]. `Cc1n[nH]c2ccc(-c3cncc(N[C@H]4CC[C@H](O)CC4)n3)cc12`: the results for the half-maximal effective concentration (EC50) in assay [2] and in assay [3] were 95 nM and 1 nM, respectively. On to `CCCC(=O)Nc1cncc(-c2cc3c(-c4nc5c(-c6cccc(F)c6)nccc5[nH]4)n[nH]c3cn2)c1`, for which the EC50 in assay [2] is 18.8 nM; in assay [3], 53 nM; in assay [4] it was 10 nM. On to `CC(C)CC(=O)Nc1cncc(-c2cc3c(-c4cc5c(-c6cc(F)cc(CNS(C)(=O)=O)c6)cncc5[nH]4)n[nH]c3cn2)c1`, for which the EC50 in assay [2] is greater than 10000 nM; in assay [3], 99 nM. `Fc1cccc(-c2cncc3[nH]c(-c4n[nH]cc4C#Cc4cncc(OC5CCNCC5)c4)nc23)c1`: the values for the EC50 in assay [2] and in assay [3] were 4640 nM and 56 nM, respectively. Taken in the same sequence, the figures for `CC(C)CC(=O)Nc1cncc(-c2cnc3[nH]nc(-c4cc5c(-c6cc(F)cc(CNS(C)(=O)=O)c6)cncc5[nH]4)c3c2)c1` were 2510 nM and 16 nM. Consider `CN(C)CCN(C)c1ccc(NC(=O)c2n[nH]c3ccc(-c4cncc(CN5CCCCC5)c4)cc23)cn1`, for which the EC50 in assay [2] was 65 nM; in assay [3] it was 1 nM.
